Results on four compounds are retold here after patent US8618074B2, “GPCR enhanced neuroprotection to treat brain injury” (Board of Regents of the University of Texas System, priority 2007, dated 2013).

Structures are written as SMILES.

Test [1] relates to Rose Bengal (RB)-induced cerebral infarcts in mouse cortex. Kind of test: RB-induced photothrombosis lesion size in parietal cortex of GFAP-GFP transgenic mice (confocal). The following applies: 24 and 48 hours post-ischemia; with versus without MRS2365. Format: in vivo. An excerpt: A precise clot in a blood vessel is induced using the photosensitive dye Rose Bengal (RB) in the mouse cortex. The blood vessels were simultaneously imaged by injecting the red fluorescent dye […] into the mouse circulation. The targeted blood vessel is illuminated by a 543-nm laser after tail vein injection of RB. RB is activated by the laser and interacts with molecular oxygen to form singlet oxygen, which is known to damage endothelial cells within the blood vessel, thereby triggering the natural clotting cascade and leading to formation of a clot. Pharmacological agents can be introduced at the time of photoactivation which also causes the breakdown of the blood-brain barrier.
The parietal cortex of GFAP-GFP transgenic mice was imaged using confocal microscopy and a 40×NA 0.8 or 10×NA 0.45 objective. The same region of the cortex was periodically imaged prior to RB injection, and 10, 20, 30, and 40 minutes post-RB injection. RB is impermeable to the BBB and is cleared quickly under physiological conditions.
The parietal cortex of GFAP-GFP transgenic mice was imaged using confocal microscopy and a 10×0.45 NA objective. […] The size of the lesion was calculated in Image J by tracing the region of the cortex that was void of GFP expressing astrocytes. […]

Test [2] deals with astrocytes. Kind of test: Time until mitochondrial membrane potential (ΔΨ, TMRE) collapse during t-BuOOH oxidative stress. Format: cell-based, mouse. As to conditions: for time until ΔΨ collapse: then t-BuOOH; for average time until ΔΨ collapse: XeC 25 μM pretreatment + ATP 10 μM, then t-BuOOH 100 μM. How it is done:
Primary cultures of astrocytes were prepared as previously published (Lin et al., 2005). C57BL/6 male mice were purchased from the National Institute of Aging and maintained in standard accredited housing conditions at the University of Texas Health Science Center Animal Facility. Animal protocols were approved by our Institutional Animal Care Use Committee. Astrocytes were cultured in DMEM F-12 media (Invitrogen, # 11039-021) supplemented with 2 mM glutamine, nonessential amino acids, 10% fetal calf serum, 100 U/ml penicillin/streptomycin (Cambrex BioScience Walkersville, #17-602E) and 1% fungizone (Invitrogen, #15290-018) at 37° C. in an atmosphere containing 5% CO2. The culture medium was changed every 3-5 days. Confluent cells were gently removed by a trypsin EDTA solution and re-plated on 35 mm glass bottom chambers (Bioptechs #04200415C) prior to imaging experiments 3-4 days later. Cells were maintained in plastic culture flasks until the final re-seeding of cells onto a glass bottom chamber and were passed up to 3 times for astrocyte only experiments. For co-culture experiments with neurons, primary astrocytes were plated directly onto corning transwell-clear permeable supports, which physically separates the two cell-types by ˜1 mm (# 07-200-170, Fisher scientific). Astrocytes were cultured in transwells until they were ˜70% confluent. Mouse cortical neurons (Cambrex Bio Science Walkersville Inc., # M-CX-300) were then cultured onto 6 well mat-tek glass bottom plates and maintained in Neurobasal Medium (Invitrogen, # 21103-049), 2 mM L-Glutamine (Cambrex BioScience Walkersville, #17-605E), 100 U/ml penicillin/streptomycin (Cambrex BioScience Walkersville, #17-602E) and B-27 with (Invitrogen, #17504-044) and without antioxidants (Invitrogen, #10889-038), which controls glia contamination to less than 0.5%. The transwell supports with cultured astrocytes were placed in the neuron seeded glass bottom chambers for four days before imaging and both cell types were then maintained in neuronal media. For neuron only experiments, the astrocytes on the transwell supports were removed prior to treatments and imaging.
(§1) Mitochondrial membrane potentials (ΔΨs) was measured as previously described using the potential sensitive dye tetra-methyl rhodamine ethyl ester (TMRE, Molecular Probes, #T-669) (Lin and Lechleiter, 2002). Images were acquired with a 60× oil 1.4 NA objective on a Nikon PCM2000 confocal microscope custom adapted for two-photon imaging. A Ti-sapphire Coherent Mira 900 Laser pumped with a 5W Verdi laser (Coherent Inc., Santa Clara, Calif.) was used to excite TMRE at 800 nm A neutral-density filter wheel was used to attenuate the laser intensity so that no detectable photobleaching of TMRE was observed.
To investigate this, primary cultures of astrocytes were prepared from the brains of young (4-6 months) and old (26-28 months) mice and re-plated on glass coverslips prior to each imaging experiment as previously described. Seeded glass coverslips were then sealed in an open chamber (Bioptechs Delta T) and perfused at 37° C. with the potential sensitive dye tetramethyl rhodamine ethyl ester (TMRE, 200 nM, Molecular Probes/Invitrogen) to label astrocyte mitochondria. Mitochondrial membrane potentials (ΔΨs) were measured every 5 minutes using two-photon microscopy. Each image is a maximum intensity projection of a z-stack of six optical sections (1-μm steps). Scale bar is 10 μm. Plated cells were continuously perfused at 37° C. with culture medium containing TMRE (200 nM) and imaged with 2-photon microscopy (800 nm). Oxidative stress was applied to the cells in the perfusate with t-BuOOH (100 μM). Cell viability was then monitored by the collapse of ΔΨ (TMRE fluorescence) to 10% of its initial value. The time course of ΔΨ collapse is plotted for 3 astrocytes (A1, A2, A3) in each culture (FIGS. 1B and 2B). Fluorescent units are scaled to 100% at 0 hours. […]

For test [3], the system named is astrocytes. The test is described as follows: Mitochondrial membrane potential ΔΨ estimated as log(Fmito/Fcyto) with TMRE. It counts as cell-based, mouse. As to the method:
as §1
We confirmed this by directly measuring the effect of ATP, ATP plus XeC and IP3-BM treatments on ΔΨ. Cultured cells were labeled with TMRE (200 nM) and imaged with a two-photon microscope as described above. ΔΨ was estimated as the log (Fmito/Fcyto) where Fmito is the peak fluorescent intensity observed in single mitochondria (Farkas et al., 1989; Lin et al., 2005). The mean values of individual mitochondria from a single cell were used for the mitochondrial potential estimate. Fcyto represents the lowest value of TMRE fluorescence observed within the boundaries of the same cell. […] FIG. 5E depicts a histogram plot showing average mitochondrial membrane potentials before and after treatment. The mean resting ΔΨs for untreated (Buffer), ATP-treated, ATP plus XeC-treated and IP3-BM-treated were 1.84+0.01 (n=78 mitochondria, pooled from 2 experiments), 1.84+0.01 (n=85 mitochondria), 1.85+0.01 (n=80 mitochondria) and 1.86+0.01 (n=48 mitochondria), respectively. Astrocyte cultures were then exposed to their respective treatments and the same fields of mitochondria were imaged 10 minutes later.

The test system of test [4] is astrocytes. Kind of test: Fura-2 two-photon imaging of intracellular Ca2+ response. Format: cell-based, mouse. The following applies: for Ca2+ response: then IP3-BM. As to the method:
Ca^2+ activity was imaged as previously described (Camacho and Lechleiter, 1995). In brief, cultured astrocytes were incubated with the fura-2 am (Molecular Probes, #F-1221) 30 min prior to the experiment. Images were acquired with two-photon excitation (800 nm) at the rate of 1.5 images/ sec. […] Images were analyzed with Image J and ANALYZE® software (the Mayo Foundation, Rochester, MN). The D-enantiomer of the 1P3-BM ester was synthesized by Stuart Conway in the Cambridge University Chemical Laboratory by using a modification of the protocol of Tsien and co-workers (Li et al., 1997).
The primary response of glial cells to extracellular ATP is an increase in intracellular Ca^2+. To investigate whether the protective effect of ATP could be initiated by a Ca^2+ response, we loaded cultures of astrocytes with the Ca^2+ indicator dye Fura-2 AM (10 μM for 30 minutes). Fura-2 fluorescence was imaged with 2-photon microscopy using 800 nm excitation. At this wavelength, fluorescence is primarily due to the Ca^2+ free form of fura-2. […] When young astrocyte cultures were exposed to extracellular ATP (10 μM for 10 minutes), the peak intracellular Ca^2+ (−ΔF/F) was increased to 0.46±0.02 (n=25, pooled from 2 experiments). […] We tested whether the ATP-induced Ca^2+ response could be attributed to the metabotropic pathway, since IP3 mediated Ca^2+ release can stimulate mitochondrial energy production as well as sensitize mitochondria to apoptotic stimuli. Astrocytes cultured from old mice were pretreated with Xestospongin C (XeC, 25 μM for 30 minutes), which is a competitive inhibitor of IP3 binding to the IP3R. […] This is consistent with other reports showing that activation of the ionotropic P2X receptor activation also increases Ca^2+ in cultured astrocytes. To determine whether the metabotropic pathway was involved with the protective effect of extracellular ATP, we subsequently exposed the XeC/ATP treated astrocytes to oxidative stress. As described above, the perfusate contained t-BuOOH (100 μM) and TMRE (200 nM) to monitor ΔΨ. Under these experimental conditions, the average time until ΔΨ collapse was reduced to 5.48±0.22 (n=23, pooled from 2 experiments) in young astrocytes (FIG. 1C) and to 4.02±0.18 h (n=19, pooled from 2 experiments) in old astrocytes (FIG. 2C). […] We concluded that the protective effect of ATP on astrocytes was mediated by P2Y-receptors (P2Y-Rs).

For test [5], the system named is HEK293 cells that were overexpressing type 1 muscarinic acetylcholine receptors (mAchR1s). The test is described as follows: Cell death induced by t-BuOOH or ceramide with IP3-gated Ca2+ release stimulation. It counts as cell-based, human. The following applies: ACh 1 μM; t-BuOOH (100 μM, 3 hrs) or ceramide (40 μM, 12 hrs). An excerpt:
P2 purinoceptors are a class of cell surface receptors, subdivided into either the ligand-gated ionotropic receptors (P2X) or G-protein-coupled metabotropic receptors (P2Y)). We focused our work on the P2Y-Rs due to their strong coupling to Gq/11 signaling pathway in astrocytes. Activation of P2Y-receptors stimulates PLCB isoenzymes, increasing inositol triphosphate (IP3) formation and subsequent Ca^2+ mobilization from thapsigargin sensitive stores in the endoplasmic reticulum (ER). Thapsigargin is a specific inhibitor of the sarco-endoplasmic reticulum Ca^2+ ATPases (SERCAs). As mentioned above, IP3-mediated Ca^2+ release is efficiently sequestered by mitochondria, due to its physically close proximity the Ca^2+ channel pore. Increased mitochondrial Ca^2+ uptake via the Ca^2+ uniporter rapidly stimulates Ca^2+ sensitive dehydrogenases and subsequently, increases respiration and ATP production. […] Another important point to make with regard to mitochondrial Ca^2+ signaling is that high matrix Ca^2+ is generally thought to sensitize cells to cell death stimuli. During prolonged periods or with sufficiently high concentrations, matrix Ca^2+ induces opening of the mitochondrial permeability transition pore (MPT). Recent work has identified the mitochondrial targeted cyclophilin D as a key player in Ca^2+ stimulated cell death. […]

Take `CSc1nc(N)c2ncn([C@H]3[C@H](O)[C@H](O)[C@]4(COP(=O)(O)OP(=O)(O)O)C[C@H]34)c2n1` [MRS2365, N-methanocarba-2MeSADP]: in test [1], the “size of the lesion (cortex void of GFP expressing astrocytes)” value was “greatly reduces the size of the lesion”.

Take `CCCC(=O)OCOP(=O)(OCOC(=O)CCC)O[C@@H]1[C@H](O)[C@H](O)[C@@H](OP(=O)(OCOC(=O)CCC)OCOC(=O)CCC)[C@H](OP(=O)(OCOC(=O)CCC)OCOC(=O)CCC)[C@H]1O` [IP3-BM, butyryloxymethyl ester of IP3]: the “time until ΔΨ collapse” value in the test on astrocytes [2] (old astrocytes, IP3-BM 25 μM fifteen minutes) is given as 6.32±0.35; in the test on astrocytes [2] (young astrocytes, IP3-BM 25 μM fifteen minutes), 6.82±0.32. Moreover, the “ΔΨ (log Fmito/Fcyto) after treatment” value with astrocytes [3] (treating astrocytes for 10 minutes) was 2.02±0.01. The “peak Ca2+ response” value with astrocytes [4] (old astrocytes, IP3-BM 25 μM) was determined as 0.24±0.02; in the test on astrocytes [4] (young astrocytes, IP3-BM 25 μM) it was 0.34±0.02.

With `CC(=O)OCC[N+](C)(C)C` [ACh], the cell death entry in test [5] is “significantly higher”.

As for `C1CCC[C@H]2CCCN3CC[C@@H](CCCCCC[C@@H]4CCCN5CC[C@@H](CC1)O[C@@H]45)O[C@@H]23` [XeC, Xestospongin C], the “average time until ΔΨ collapse” value with astrocytes [2] (old astrocytes) was 4.02 ± 0.18 h; with astrocytes [2] (young astrocytes), 5.48 ± 0.22 h. For the same compound, the “time until ΔΨ collapse” value in the test with astrocytes [2] (old astrocytes, XeC pretreatment + IP3-BM) worked out at 4.48±0.07; in the test on astrocytes [2] (young astrocytes, XeC pretreatment + IP3-BM) it was 4.73±0.05. The “ΔΨ (log Fmito/Fcyto) after treatment” value in the test on astrocytes [3] (pretreated with XeC and then exposed to ATP) is 1.87±0.01. Further, the “peak Ca2+ response” value in the test with astrocytes [4] (old astrocytes, XeC 25 μM 30 min pretreatment, then ATP 10 μM) came out at 0.28±0.04. For the same compound, the “Ca2+ response” value in the test on astrocytes [4] (old astrocytes, XeC 25 μM 30 min pretreatment) is recorded as 0.13±0.01; in the test on astrocytes [4] (young astrocytes, XeC 25 μM 30 min pretreatment), 0.11±0.01.
